Measurements reported in patent publication US20260317344A1, “EGFR INHIBITORS FOR TREATING DISEASE” (BLOSSOMHILL THERAPEUTICS, INC., priority 2023, published 2026).

Key:
HCC827 cells = experiment: 5-Day CellTiter Glo (CTG) cell proliferation assay, HCC827; assay type: cell-based; conditions: Homo sapiens; HCC827 cells (d746-750 EGFR), 5-day CTG proliferation, 120 hours; read-out: HCC827 IC50
In short: (§1)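 Proliferation of EGFR-driven NSCLC cells was scored as CellTiter-Glo 2.0 luminescence after a 5-day (120 h) incubation with compounds in 9 doses. IC50 values came from the dose-response curves.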

EGFR (L858R/T790M/C797S) = EGFR (L858R/T790M/C797S) (Homo sapiens, UniProt P00533, C797S/L858R/T790M); experiment: HotSpot radiometric kinase assay, inhibition of EGFR L858R/T790M/C797S mutant; assay type: biochemical; conditions: 33P ATP, room temperature, 120 m
In short: (§2)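 Radiometric filter-binding format: ATP plus 33P-ATP ([…]) was added about 20 min after compound to kinase and substrate in HEPES pH 7.5 buffer with Mg2+, EGTA, Brij35, BSA, vanadate, DTT and 1% DMSO. After 120 min at room temperature, reactions were spotted on P81 paper and washed in phosphoric acid; IC50 values fitted.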

EGFR (D770_N771insNPG) = EGFR (D770_N771insNPG) (Homo sapiens, UniProt P00533, INS770NPG); experiment: HotSpot radiometric kinase assay, inhibition of EGFR (D770_N771insNPG) mutant; assay type: biochemical; conditions: 33P ATP, room temperature, 120 m
In short: as §2

EGFR (D746-750) = EGFR (D746-750) (Homo sapiens, UniProt P00533, DEL746-750); experiment: HotSpot radiometric kinase assay, inhibition of EGFR 746-750 mutant; assay type: biochemical; conditions: 33P ATP, room temperature, 120 m
EGFR (D746-750), sequence (P00533 with tags, fused parts or gaps DEL746-750): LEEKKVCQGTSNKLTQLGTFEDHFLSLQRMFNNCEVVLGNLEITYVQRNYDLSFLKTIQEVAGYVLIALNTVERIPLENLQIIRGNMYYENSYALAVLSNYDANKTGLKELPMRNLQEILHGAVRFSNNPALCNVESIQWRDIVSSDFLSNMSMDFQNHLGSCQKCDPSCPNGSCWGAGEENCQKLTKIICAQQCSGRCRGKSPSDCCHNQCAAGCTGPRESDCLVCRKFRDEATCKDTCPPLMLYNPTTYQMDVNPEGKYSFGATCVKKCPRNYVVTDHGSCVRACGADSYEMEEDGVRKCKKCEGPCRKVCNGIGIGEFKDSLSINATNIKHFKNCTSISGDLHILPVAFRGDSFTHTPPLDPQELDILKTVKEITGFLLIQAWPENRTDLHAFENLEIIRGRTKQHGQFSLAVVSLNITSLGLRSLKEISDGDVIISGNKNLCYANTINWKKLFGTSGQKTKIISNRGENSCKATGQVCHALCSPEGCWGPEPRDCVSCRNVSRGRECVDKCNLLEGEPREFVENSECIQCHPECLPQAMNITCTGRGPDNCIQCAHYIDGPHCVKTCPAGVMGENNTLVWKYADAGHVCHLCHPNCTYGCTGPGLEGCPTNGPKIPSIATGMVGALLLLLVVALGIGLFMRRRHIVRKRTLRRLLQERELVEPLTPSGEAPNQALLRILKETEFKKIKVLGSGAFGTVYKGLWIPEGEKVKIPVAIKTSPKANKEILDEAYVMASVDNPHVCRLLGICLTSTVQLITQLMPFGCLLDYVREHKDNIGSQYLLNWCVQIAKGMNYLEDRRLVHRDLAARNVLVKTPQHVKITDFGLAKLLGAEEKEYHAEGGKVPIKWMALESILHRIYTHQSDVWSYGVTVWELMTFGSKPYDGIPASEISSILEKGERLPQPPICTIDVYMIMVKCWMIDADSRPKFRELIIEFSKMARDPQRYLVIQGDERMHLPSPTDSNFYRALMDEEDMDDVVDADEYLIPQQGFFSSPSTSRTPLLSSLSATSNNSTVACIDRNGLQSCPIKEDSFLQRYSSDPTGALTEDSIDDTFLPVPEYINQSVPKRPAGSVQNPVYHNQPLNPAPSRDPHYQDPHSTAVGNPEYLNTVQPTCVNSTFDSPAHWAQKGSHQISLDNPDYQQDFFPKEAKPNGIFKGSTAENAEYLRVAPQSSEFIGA
In short: as §2

EGFR WT = EGFR WT (Homo sapiens, UniProt P00533); experiment: HotSpot radiometric kinase assay, inhibition of EGFR WT; assay type: biochemical; conditions: 33P ATP, room temperature, 120 m
Method: (§3) Biochemical Assays for inhibition of wild-type and mutant EGFRs
(§4) Briefly, specific kinase/substrate pairs along with required cofactors were prepared in reaction buffer; 20 mM HEPES pH 7.5, 10 mM […], 1 mM EGTA, 0.02% Brij35, 0.02 mg/ml BSA, 0.1 mM Na3VO4, 2 mM DTT, 1% DMSO. Compounds were delivered into the reaction, followed ~20 minutes later by addition of a mixture of ATP (Sigma, St. Louis MO) and ^33P ATP (Perkin Elmer, Waltham MA) to a final concentration of […]. Reactions were carried out at room temperature for 120 m, followed by spotting of the reactions onto P81 ion exchange filter paper (Whatman Inc., Piscataway, NJ). Unbound phosphate was removed by extensive washing of filters in 0.75% phosphoric acid. […] IC50 values and curve fits were obtained using Prism (GraphPad Software).

PC-9 cells = experiment: 5-Day CellTiter Glo (CTG) cell proliferation assay, PC-9; assay type: cell-based; conditions: Homo sapiens; PC-9 cells (d746-750 EGFR), 5-day CTG proliferation, 120 hours; read-out: PC-9 IC50
In short: as §1

[1] = target: T1, pEGFR, PC-9 cells (d746-750 EGFR) (Homo sapiens, UniProt P00533, DEL746-750); experiment: Cellular EGFR phosphorylation assay (LANCE Ultra TR-FRET) in PC-9 cells; assay type: cell-based; conditions: 4 hours at 37° C., read-out: PC-9 pEGFR IC50
T1 construct: pEGFR (Tyr1068) TR-FRET
T1 sequence (P00533 with tags, fused parts or gaps DEL746-750): as above
In short: (§5)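 Phospho-EGFR (Tyr1068) measured by TR-FRET in lysates after 4 h compound exposure at 37° C (9 doses, 3-fold steps). A431 cells, seeded at 30 thousand per well, received 40 ng/mL EGF for the last 10 min; PC-9 and NCI-H1975 seeded at 50 thousand per well, unstimulated. IC50 values reported.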

[2] = target: T2, pEGFR, A431 cells (wildtype EGFR) (Homo sapiens, UniProt P00533); experiment: Cellular EGFR phosphorylation assay (LANCE Ultra TR-FRET) in A431 cells; assay type: cell-based; conditions: 4 hours at 37° C., 40 ng/mL EGF for the final 10 minutes, read-out: A431 pEGFR IC50
T2 construct: pEGFR (Tyr1068) TR-FRET
T2 sequence (P00533 25-1210): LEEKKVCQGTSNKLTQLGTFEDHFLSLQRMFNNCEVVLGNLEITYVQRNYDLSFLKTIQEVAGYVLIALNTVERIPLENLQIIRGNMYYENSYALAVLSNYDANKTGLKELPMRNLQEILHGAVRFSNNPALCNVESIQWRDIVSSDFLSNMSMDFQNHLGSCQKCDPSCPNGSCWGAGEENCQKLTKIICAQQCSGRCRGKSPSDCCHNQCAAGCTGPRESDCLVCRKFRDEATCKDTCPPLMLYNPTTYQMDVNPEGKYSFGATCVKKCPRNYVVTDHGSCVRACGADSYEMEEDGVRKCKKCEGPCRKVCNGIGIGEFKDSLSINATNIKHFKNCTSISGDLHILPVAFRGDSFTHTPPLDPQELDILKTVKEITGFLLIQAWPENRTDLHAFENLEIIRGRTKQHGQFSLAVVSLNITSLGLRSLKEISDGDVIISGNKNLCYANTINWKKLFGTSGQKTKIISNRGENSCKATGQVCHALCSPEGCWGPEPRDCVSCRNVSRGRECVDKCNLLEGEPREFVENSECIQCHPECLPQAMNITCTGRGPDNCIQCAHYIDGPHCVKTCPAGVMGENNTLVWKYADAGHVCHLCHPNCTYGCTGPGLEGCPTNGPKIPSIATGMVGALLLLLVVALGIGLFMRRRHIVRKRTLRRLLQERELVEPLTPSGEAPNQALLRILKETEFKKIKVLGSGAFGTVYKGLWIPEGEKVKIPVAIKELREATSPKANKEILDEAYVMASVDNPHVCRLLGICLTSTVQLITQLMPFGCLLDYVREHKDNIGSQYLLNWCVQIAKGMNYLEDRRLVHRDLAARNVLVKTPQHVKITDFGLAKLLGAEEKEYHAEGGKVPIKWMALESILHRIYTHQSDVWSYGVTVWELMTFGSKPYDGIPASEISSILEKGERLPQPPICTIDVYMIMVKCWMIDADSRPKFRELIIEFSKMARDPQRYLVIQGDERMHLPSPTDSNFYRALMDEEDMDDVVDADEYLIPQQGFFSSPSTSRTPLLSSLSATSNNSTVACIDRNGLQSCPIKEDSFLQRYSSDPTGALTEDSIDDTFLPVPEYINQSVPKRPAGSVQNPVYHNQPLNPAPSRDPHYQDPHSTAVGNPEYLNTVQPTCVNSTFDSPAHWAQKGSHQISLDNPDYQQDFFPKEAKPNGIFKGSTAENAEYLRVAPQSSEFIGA
In short: as §5

EGFR (D746-750/C797S) = EGFR (D746-750/C797S) (Homo sapiens, UniProt P00533, C797S/DEL746-750); experiment: HotSpot radiometric kinase assay, inhibition of EGFR 746-750/C797S mutant; assay type: biochemical; conditions: 33P ATP, room temperature, 120 m
EGFR (D746-750/C797S), sequence (P00533 with tags, fused parts or gaps DEL746-750/C797S): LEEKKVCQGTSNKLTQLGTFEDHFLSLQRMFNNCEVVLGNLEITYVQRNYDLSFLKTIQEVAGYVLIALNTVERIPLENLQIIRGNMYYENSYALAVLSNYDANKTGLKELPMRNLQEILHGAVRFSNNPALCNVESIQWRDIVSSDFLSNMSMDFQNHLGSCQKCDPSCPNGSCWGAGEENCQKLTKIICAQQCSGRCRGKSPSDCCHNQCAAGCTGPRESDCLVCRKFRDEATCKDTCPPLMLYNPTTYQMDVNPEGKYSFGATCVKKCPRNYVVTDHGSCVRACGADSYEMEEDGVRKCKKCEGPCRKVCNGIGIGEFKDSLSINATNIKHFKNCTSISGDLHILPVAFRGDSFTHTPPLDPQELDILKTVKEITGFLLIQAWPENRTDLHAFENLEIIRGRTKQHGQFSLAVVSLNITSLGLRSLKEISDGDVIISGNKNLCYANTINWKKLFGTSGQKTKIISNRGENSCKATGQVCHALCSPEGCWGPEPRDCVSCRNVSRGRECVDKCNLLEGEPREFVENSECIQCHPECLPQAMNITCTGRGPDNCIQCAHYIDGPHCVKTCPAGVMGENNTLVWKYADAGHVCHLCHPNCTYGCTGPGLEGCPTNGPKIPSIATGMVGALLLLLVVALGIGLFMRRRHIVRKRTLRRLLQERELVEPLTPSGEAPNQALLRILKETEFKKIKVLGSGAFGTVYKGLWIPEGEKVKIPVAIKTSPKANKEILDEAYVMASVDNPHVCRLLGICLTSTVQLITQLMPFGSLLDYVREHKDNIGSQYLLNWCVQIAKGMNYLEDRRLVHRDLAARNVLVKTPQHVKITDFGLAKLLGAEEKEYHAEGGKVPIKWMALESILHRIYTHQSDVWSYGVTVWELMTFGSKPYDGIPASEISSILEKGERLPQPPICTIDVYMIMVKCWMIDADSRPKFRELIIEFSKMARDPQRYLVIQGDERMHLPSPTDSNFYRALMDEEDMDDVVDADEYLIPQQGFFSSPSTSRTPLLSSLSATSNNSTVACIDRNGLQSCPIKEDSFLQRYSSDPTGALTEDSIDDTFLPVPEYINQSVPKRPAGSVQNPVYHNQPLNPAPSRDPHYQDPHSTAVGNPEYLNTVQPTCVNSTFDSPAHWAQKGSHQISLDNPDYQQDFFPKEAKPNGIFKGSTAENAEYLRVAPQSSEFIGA
In short: as §2

[3] = target: T3, pEGFR, NCI-H1975 cells (L858R/T790M EGFR) (Homo sapiens, UniProt P00533, L858R/T790M); experiment: Cellular EGFR phosphorylation assay (LANCE Ultra TR-FRET) in NCI-H1975 cells; assay type: cell-based; conditions: 4 hours at 37° C., read-out: H1975 pEGFR IC50
T3 construct: pEGFR (Tyr1068) TR-FRET
In short: as §5

NCI-H1975 cells = experiment: 5-Day CellTiter Glo (CTG) cell proliferation assay, NCI-H1975; assay type: cell-based; conditions: Homo sapiens; NCI-H1975 cells (L858R/T790M EGFR), 5-day CTG proliferation, 120 hours; read-out: H1975 IC50
In short: as §1

EGFR (L858R) = EGFR (L858R) (Homo sapiens, UniProt P00533, L858R); experiment: HotSpot radiometric kinase assay, inhibition of EGFR L858R mutant; assay type: biochemical; conditions: 33P ATP, room temperature, 120 m
Method: as §3, §4

EGFR (L858R/T790M) = EGFR (L858R/T790M) (Homo sapiens, UniProt P00533, L858R/T790M); experiment: HotSpot radiometric kinase assay, inhibition of EGFR L858R/T790M mutant; assay type: biochemical; conditions: 33P ATP, room temperature, 120 m
Method: as §3, §4

[4] = system: BaF3 cells with engineered EGFR L858R/C797S; experiment: 3-Day CellTiter Glo (CTG) cell proliferation assay, BaF3 EGFR L858R/C797S; assay type: cell-based; conditions: Mus musculus, 3-day CTG proliferation, 72 hours
In short: (§6)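 Growth inhibition in transgene-bearing BaF3 lines was scored after three days of compound treatment by CellTiter-Glo 2.0 ATP luminescence, yielding IC50 values.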

[5] = system: BaF3 cells with engineered EGFR L858R/T790M/C797S; experiment: 3-Day CellTiter Glo (CTG) cell proliferation assay, BaF3 EGFR L858R/T790M/C797S; assay type: cell-based; conditions: Mus musculus, 3-day CTG proliferation, 72 hours
In short: as §6

[6] = system: BaF3 cells with engineered EGFR d746-750/T790M; experiment: 3-Day CellTiter Glo (CTG) cell proliferation assay, BaF3 EGFR d746-750/T790M; assay type: cell-based; conditions: Mus musculus; BaF3 EGFR d746-750/T790M cells, 3-day CTG proliferation, 72 hours
In short: as §6

IC50 (HCC827 cells) | IC50 (EGFR (L858R/T790M/C797S)) | IC50 (EGFR (D770_N771insNPG)) | IC50 (EGFR (D746-750)) | IC50 (EGFR WT) | IC50 (PC-9 cells) | IC50 [1] | IC50 [2] | IC50 (EGFR (D746-750/C797S)) | IC50 [3] | IC50 (NCI-H1975 cells) | IC50 (EGFR (L858R)) | IC50 (EGFR (L858R/T790M)) | IC50 [4] | IC50 [5] | IC50 [6] | SMILES
1.12 nM | 0.53 nM | 0.69 nM | 0.28 nM |  | 3.31 nM | 2.15 nM | 12.2 nM | 0.95 nM | 1.24 nM | 1.09 nM |  |  | 0.12 nM | 0.47 nM | 1.04 nM | CCOc1nn([C@@H](C)CO)c2c1/C=C/c1n[nH]c3c(C)nc(cc13)-c1cnn(C)c1O[C@@H](C)CN(C)C2 [Ex. 45, (2S)-2-[(10S,17E)-16-ethoxy-8,10,12,20-tetramethyl-2,8,10,11,12,13-hexahydro-14H-5,3-(azenometheno)tripyrazolo[3,4-f:3′,4′-j:4″,3″-n][1,4]oxazacyclopentadecin-14-yl]propan-1-ol]
0.51 nM | 0.41 nM | 0.24 nM | 0.22 nM |  | 2.56 nM | 1.56 nM | 15.1 nM | 0.66 nM | 1.25 nM | 3.05 nM |  |  | 0.14 nM | 0.89 nM | 0.46 nM | CCOc1nn([C@@H](C)CO)c2c1/C=C/c1n[nH]c3cnc(cc13)-c1c(C)nn(C)c1O[C@H](C)CN(C)C2 [Ex. 35, (2S)-2-[(10R,17E)-16-ethoxy-6,8,10,12-tetramethyl-2,8,10,11,12,13-hexahydro-14H-5,3-(azenometheno)tripyrazolo[3,4-f:3′,4′-j:4″,3″-n][1,4]oxazacyclopentadecin-14-yl]propan-1-ol]
8.59 nM | 0.86 nM | 4.83 nM | 0.8 nM |  | 21.9 nM | 11.3 nM | 26.1 nM | 1.38 nM | 10.5 nM | 68.2 nM |  |  | 0.69 nM | 1.77 nM | 61.8 nM | Cc1nn([C@@H](C)CO)c2c1/C=C/c1n[nH]c3c(C)nc(cc13)-c1c(C)nn(C)c1O[C@@H](C)CN(C)C2 [Ex. 57, (2S)-2-[(10S,17E)-6,8,10,12,16,20-hexamethyl-2,8,10,11,12,13-hexahydro-14H-5,3-(azenometheno)tripyrazolo[3,4-f:3′,4′-j:4″,3″-n][1,4]oxazacyclopentadecin-14-yl]propan-1-ol]
1.1 nM | 0.67 nM | 0.45 nM | 0.37 nM |  | 2.94 nM | 2.57 nM | 21 nM | 1.12 nM | 8.74 nM | 15.7 nM |  |  | 0.18 nM | 1.57 nM | 4.31 nM | Cc1nn(C)c2c1-c1cc3c(n[nH]c3cn1)/C=C/c1c(OCC#N)nn([C@@H](C)CO)c1CN(C)C[C@H](C)O2 [Ex. 53, {[(10S,17E)-14-[(2S)-1-hydroxypropan-2-yl]-6,8,10,12-tetramethyl-2,10,11,12,13,14-hexahydro-8H-5,3-(azenometheno)tripyrazolo[3,4-f:3′,4′-j:4″,3″-n][1,4]oxazacyclopentadecin-16-yl]oxy}acetonitrile]

Continued, compound first:

SMILES | IC50 (HCC827 cells) | IC50 (EGFR (L858R/T790M/C797S)) | IC50 (EGFR (D770_N771insNPG)) | IC50 (EGFR (D746-750)) | IC50 (EGFR WT) | IC50 (PC-9 cells) | IC50 [1] | IC50 [2] | IC50 (EGFR (D746-750/C797S)) | IC50 [3] | IC50 (NCI-H1975 cells) | IC50 (EGFR (L858R)) | IC50 (EGFR (L858R/T790M)) | IC50 [4] | IC50 [5] | IC50 [6]
CCOc1nn(CCO)c2c1/C=C/c1n[nH]c3cnc(cc13)-c1cnn(C)c1OC[C@H](C)N(CC)C2 [Ex. 7, 2-[(11S,17E)-16-ethoxy-12-ethyl-8,11-dimethyl-2,8,10,11,12,13-hexahydro-14H-5,3-(azenometheno)tripyrazolo[3,4-f:3′,4′-j:4″,3″-n][1,4]oxazacyclopentadecin-14-yl]ethan-1-ol] | 5.17 nM | 0.23 nM | 1.09 nM | 0.29 nM | 1.16 nM | 59.7 nM | 24.3 nM | 70.9 nM | 0.74 nM | 14.2 nM | 47.4 nM | 0.89 nM | 0.28 nM |  |  | 
CC(C)Oc1nn(CCO)c2c1/C=C/c1n[nH]c3cnc(cc13)-c1cnn(C)c1O[C@@H](C)CN(C)C2 [Ex. 5, 2-[(10S,17E)-8,10,12-trimethyl-16-[(propan-2-yl)oxy]-2,8,10,11,12,13-hexahydro-14H-5,3-(azenometheno)tripyrazolo[3,4-f:3′,4′-j:4″,3″-n][1,4]oxazacyclopentadecin-14-yl]ethan-1-ol] | 0.99 nM | 0.1 nM | 0.08 nM | 0.08 nM | 0.08 nM | 33.5 nM | 6.4 nM | 29.2 nM | 0.45 nM | 3.99 nM | 4.88 nM | 0.13 nM | 0.11 nM |  |  | 
CCOc1nn(CCO)c2c1/C=C/c1n[nH]c3cnc(cc13)-c1c(C)nn(C)c1O[C@@H](C)CN(C)C2 [Ex. 44, 2-[(10S,17E)-16-ethoxy-6,8,10,12-tetramethyl-2,8,10,11,12,13-hexahydro-14H-5,3-(azenometheno)tripyrazolo[3,4-f:3′,4′-j:4″,3″-n][1,4]oxazacyclopentadecin-14-yl]ethan-1-ol] | 0.29 nM | 0.57 nM | 0.17 nM | 0.26 nM |  | 0.84 nM | 1.01 nM | 9.94 nM | 0.62 nM | 1.92 nM | 1.05 nM |  |  | 0.05 nM | 0.57 nM | 1.18 nM
CCOc1nn(CCO)c2c1/C=C/c1n[nH]c3cnc(cc13)-c1c(CC)nn(C)c1O[C@@H](C)CN(CC)C2 [Ex. 74, 2-[(10S,17E)-16-ethoxy-6,12-diethyl-8,10-dimethyl-2,8,10,11,12,13-hexahydro-14H-5,3-(azenometheno)tripyrazolo[3,4-f:3′,4′-j:4″,3″-n][1,4]oxazacyclopentadecin-14-yl]ethan-1-ol] | 0.72 nM | 1.5 nM | 0.66 nM | 0.55 nM |  | 0.68 nM | 1.54 nM | 8.81 nM | 1.83 nM | 5.16 nM | 79.9 nM |  |  | 0.04 nM | 1.34 nM | 6.61 nM
Cc1nn(C)c2c1-c1cc3c(n[nH]c3cn1)/C=C/c1c(OCC#N)nn(CCO)c1CN1CCC[C@@H]1C(C)O2 (single isomer, unassigned) [Ex. 50] | 0.41 nM | 0.39 nM | 0.21 nM | 0.19 nM |  | 0.51 nM | 1.07 nM | 19.3 nM | 0.68 nM | 3.43 nM | 5.55 nM |  |  | 0.12 nM | 1.14 nM | 2.99 nM
